In patent publication US20240156996A1, “BIOCOMPATIBLE RADIONUCLIDE-CONTAINING COMPOSITIONS AND METHODS OF USE” (priority 2022, published 2024):

Test: Encapsulation efficiency of 225Ac within PLGA nanoparticles (γ-ray spectroscopy after washing)
Assay type: physicochemical
Conditions: 95:5, 90:10, 75:25 MeOH:DI H2O; FIG. 2
Experimental: A double-emulsion solvent evaporation method was adapted for the synthesis of PLGA-chelator compound radioisotope complex. The main differences include: (1) using a cup-horn sonicator to generate emulsions and (2) decreasing the reagent volumes to minimize the generation of radiological waste. In a typical synthesis, 100 μL of PLGA dissolved in EtOAc at 40 mg/mL were mixed with 10 μL of 225Ac-chelator compound radioisotope complex in a polar solution (i.e., DI H2O, MeOH, or a mixture of both) within an Eppendorf tube. This mixture was sonicated for 30 s in a cup-horn sonicator to generate a water/oil emulsion. […]
As described above, PLGA nanoparticles were synthesized encapsulating free ^225Ac or ^225Ac-BLPhen complex in a methanol/deionized water (MeOH/DI H2O) mixture. […] The encapsulation efficiency of ^225Ac was determined after washing the PLGA nanoparticle suspensions three times with DI H2O. […] The PLGA nanoparticle suspension, the supernatant, and the Eppendorf tube used for sonication were assayed using γ-ray spectroscopy on a high purity germanium detector coupled to a PC-based multichannel analyzer to account for total radioactivity distribution. […] Energy and efficiency calibrations were determined by γ-ray sources traceable to the National Institute of Standards and Technology.

[225Ac] [^225Ac, actinium-225]
effect of increasing the water content in the MeOH/DI H2O mixture on encapsulation efficiency within PLGA nanoparticles: decreased the encapsulation efficiency
